Results as given in PMC10572347, “Structure–Activity Relationships and Antiplasmodial Potencies of Novel 3,4-Disubstituted 1,2,5-Oxadiazoles” (International Journal of Molecular Sciences, 2023).
Like-named read-outs stand apart in the source and are kept apart here.

How the values were obtained:
P. falciparum NF54 = assay: In vitro microplate assay against P. falciparum (3H-hypoxanthine incorporation); type: cell-based, Plasmodium falciparum; conditions: for S.I. = IC50 (Cyt.)/IC50 (P.f.NF54): L-6 cells vs P.f. NF54; for IC50: average of four determinations, read-out: P.f. NF54 IC50
Procedure: In vitro activity against the erythrocytic stages of P. falciparum was determined using a ^3H-hypoxanthine incorporation assay, using the drug sensitive NF54 strain [37]. […] The 96-well plates were incubated in a humidified atmosphere at 37 °C, 4% CO2, 3% O2 and 93% N2. After 48 h, 0.05 mL of ^3H-hypoxanthine (=0.5 µCi) was added to each well of the plate. The plates were incubated for a further 24 h under the same conditions. The plates were then harvested with a Betaplate cell harvester (Wallac, Zurich, Switzerland). The red blood cells were transferred onto a glass fiber filter and washed with distilled water. The dried filters were inserted into a plastic foil with 10 mL of scintillation fluid and counted in a Betaplate liquid scintillation counter (Wallac, Zurich, Switzerland). The IC50 values were calculated from sigmoidal inhibition curves by linear regression using Microsoft Excel. Chloroquine (Sigma C6628) was used as control.

[1] = In vitro cytotoxicity with L-6 cells (resazurin); type: cell-based, rat; conditions: rat
Procedure: Serial drug dilutions of 11 3-fold dilution steps covering a range from 100 to 0.002 μg/mL were prepared. After 70 h of incubation, the plates were inspected under an inverted microscope to assure the growth of the controls and sterile conditions. […] The plates were read with a Spectramax Gemini XS microplate fluorometer (Molecular Devices Cooperation, Sunnyvale, CA, USA) using an excitation wavelength of 536 nm and an emission wavelength of 588 nm. The IC50 values were calculated by linear regression from the sigmoidal dose inhibition curves using SoftmaxPro software Version 8.2.1 (Molecular Devices Cooperation, Sunnyvale, CA, USA). Podophyllotoxin (Sigma P4405) was used as control.

CYP3A4 = CYP3A4 (Homo sapiens, UniProt P08684); assay: Cytochrome P450 3A4 inhibition assay (P450-Glo, Luciferin-IPA); conditions: recombinant human CYP3A4 Supersomes (+ oxidoreductase + b5), pH 7.4, probe Luciferin-IPA
Sequence of CYP3A4 (P08684 2-503 limits assumed): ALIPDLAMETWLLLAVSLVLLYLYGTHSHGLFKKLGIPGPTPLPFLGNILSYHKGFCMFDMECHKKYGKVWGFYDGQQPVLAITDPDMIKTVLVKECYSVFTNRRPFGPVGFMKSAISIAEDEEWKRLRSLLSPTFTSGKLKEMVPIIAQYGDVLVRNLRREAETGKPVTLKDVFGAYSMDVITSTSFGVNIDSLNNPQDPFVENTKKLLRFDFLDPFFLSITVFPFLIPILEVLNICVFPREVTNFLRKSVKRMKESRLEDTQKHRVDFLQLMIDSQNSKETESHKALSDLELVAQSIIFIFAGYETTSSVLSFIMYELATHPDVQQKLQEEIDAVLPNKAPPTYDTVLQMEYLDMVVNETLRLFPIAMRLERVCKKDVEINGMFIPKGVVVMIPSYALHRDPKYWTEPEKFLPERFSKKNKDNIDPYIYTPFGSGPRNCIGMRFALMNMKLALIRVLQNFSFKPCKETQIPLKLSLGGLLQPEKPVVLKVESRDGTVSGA
Procedure: The CYP3A4 inhibition assay was performed using 96-well white plates (Greiner Bio-One) at a pH of 7.4. […] Stock solutions were further diluted to a final concentration of 20 µM using water (HPLC grade). The luciferin IPA stock solution (3 mM) was diluted to a final concentration of 0.3 mM using water (HPLC grade). The CYP3A4 reaction mixture was prepared by mixing water (HPLC grade) with potassium phosphate buffer (1 M), luciferin IPA (0.3 mM) and CYP3A4 membrane (1 pmol/µL). The control reaction mixture was prepared using water (HPLC grade), potassium phosphate buffer (1 M), luciferin IPA (0.3 mM) and membrane without CYP activity (1 pmol/µL). Solutions A and B of the NADPH regeneration system were mixed and HPLC grade water was added. The reconstituted luciferin detection reagent was prepared by mixing the reconstituted buffer with esterase with the luciferin detection reagent. Then, solutions of test compounds and standard were added to the wells of the 96-well white plate; each was tested in triplicate. The CYP3A4 reaction mixture was added to each well and the plate was incubated for 10 min at room temperature. After that, the NADPH regeneration system was added, inducing the reaction followed by an incubation time of 10 min at ambient temperature. By adding the reconstituted luciferin detection reagent, the reaction was terminated and a luminescent signal was formed. Luminescence was measured by a SpectraMax M3 UV plate reader (Molecular Devices). The relative light units (RLU) were received from a calibration curve with beetle luciferin. […] The CYP3A4 inhibition (%) was calculated from the RLU.

[2] = Plasmodium falciparum, NF54, chloroquine-sensitive strain NF54
[3] = chloroquine-sensitive strain NF54

Compound	S.I. = IC50 (Cyt.)/IC50 (P.f.NF54) (P. falciparum NF54)	IC50 (P. falciparum NF54; [2])	IC50 at 72 h [1]	melting point	IC50 (P. falciparum NF54; [3])	inhibition at 10 min, 20 µM (CYP3A4)
COc1ccc(C(=O)Nc2nonc2-c2cccc([N+](=O)[O-])c2)cc1Cl [Compound 54, 3-Chloro-4-methoxy-N-[4-(3-nitrophenyl)-1,2,5-oxadiazol-3-yl]benzamide]	0.932	5.92 µM	5.52 µM	248 °C	–	–
O=C(Nc1nonc1-c1ccc(Cl)cc1)c1cccc(F)c1 [Compound 46, N-[4-(4-Chlorophenyl)-1,2,5-oxadiazol-3-yl]-3-fluorobenzamide]	1.155	10.1 µM	11.7 µM	180 °C	–	–
O=C(Nc1nonc1-c1ccc(Cl)cc1)c1cccc(C(F)(F)F)c1 [Compound 48, N-[4-(4-Chlorophenyl)-1,2,5-oxadiazol-3-yl]-3-(trifluoromethyl)benzamide]	0.599	8.44 to 17.7 µM	5.06 µM	–	8.44 µM	–
COc1ccc(C(=O)Nc2nonc2-c2ccc(N)cc2)cc1Cl [Compound 59, N-[4-(4-Aminophenyl)-1,2,5-oxadiazol-3-yl]-3-chloro-4-methoxybenzamide]	31.54	3.14 µM	98.9 µM	250 °C	–	–
Cc1cccc(C(=O)Nc2nonc2-c2ccc(N)cc2)c1 [Compound 56, N-[4-(4-Aminophenyl)-1,2,5-oxadiazol-3-yl]-3-methylbenzamide]	15.70	6.83 µM	107 µM	159 °C	–	–
O=C(Nc1nonc1-c1ccc(F)cc1)c1cccc(F)c1 [Compound 45, 3-Fluoro-N-[4-(4-fluorophenyl)-1,2,5-oxadiazol-3-yl]benzamide]	1.000	11.2 µM	11.2 µM	169 °C	–	60%
Nc1ccc(-c2nonc2NC(=O)c2ccccc2)cc1 [Compound 55, N-[4-(4-Aminophenyl)-1,2,5-oxadiazol-3-yl]benzamide]	16.62	7.42 µM	123 µM	169 °C	–	–
Cc1cccc(C(=O)Nc2nonc2-c2cccc(N)c2)c1 [Compound 61, N-[4-(3-Aminophenyl)-1,2,5-oxadiazol-3-yl]-3-methylbenzamide]	6.182	30.2 µM	186 µM	172 °C	–	99%
O=C(Nc1nonc1-c1ccc([N+](=O)[O-])cc1)c1cccc(F)c1 [Compound 39, 3-Fluoro-N-[4-(4-nitrophenyl)-1,2,5-oxadiazol-3-yl]benzamide]	0.809	5.33 µM	4.31 µM	–	–	43%
Nc1cccc(-c2nonc2NC(=O)c2cccc(F)c2)c1 [Compound 62, N-[4-(3-Aminophenyl)-1,2,5-oxadiazol-3-yl]-3-fluorobenzamide]	6.107	–	195 µM	163 °C	32 µM	–
O=C(Nc1nonc1-c1cccc([N+](=O)[O-])c1)c1cccc(C(F)(F)F)c1 [Compound 44, N-[4-(3-Nitrophenyl)-1,2,5-oxadiazol-3-yl]-3-(trifluoromethyl)benzamide]	0.198	8.64 µM	1.71 µM	–	–	94%
Nc1ccc(-c2nonc2NC(=O)c2cccc(F)c2)cc1 [Compound 57, N-[4-(4-Aminophenyl)-1,2,5-oxadiazol-3-yl]-3-fluorobenzamide]	18.90	10.5 µM	198 µM	189 °C	–	–
O=C(Nc1nonc1-c1cccc([N+](=O)[O-])c1)c1ccccc1 [Compound 41, N-[4-(3-Nitrophenyl)-1,2,5-oxadiazol-3-yl]benzamide]	0.666	9.11 µM	6.07 µM	179 °C	–	82%
CCOc1ccc(-c2nonc2NC(=O)c2cccc(C)c2)cc1OC [Compound 52, N-[4-(4-Ethoxy-3-methoxyphenyl)-1,2,5-oxadiazol-3-yl]-3-methylbenzamide]	86.47	0.275 µM	23.8 µM	260 °C	–	52%
Nc1cccc(-c2nonc2NC(=O)c2cccc(C(F)(F)F)c2)c1 [Compound 63, N-[4-(3-Aminophenyl)-1,2,5-oxadiazol-3-yl]-3-(trifluoromethyl)benzamide]	1.201	–	21.2 µM	–	–	–
Nc1ccc(-c2nonc2NC(=O)c2cccc(C(F)(F)F)c2)cc1 [Compound 58, N-[4-(4-Aminophenyl)-1,2,5-oxadiazol-3-yl]-3-(trifluoromethyl)benzamide]	3.548	9.26 µM	32.9 µM	154 °C	–	–
Cc1cccc(C(=O)Nc2nonc2-c2ccc(F)cc2)c1 [Compound 49, N-[4-(4-Fluorophenyl)-1,2,5-oxadiazol-3-yl]-3-methylbenzamide]	4.328	–	35.1 µM	–	–	84%
Nc1cccc(-c2nonc2NC(=O)c2ccccc2)c1 [Compound 60, N-[4-(3-Aminophenyl)-1,2,5-oxadiazol-3-yl]benzamide]	4.039	–	217 µM	178 °C	–	–
O=C(Nc1nonc1-c1ccc([N+](=O)[O-])cc1)c1ccccc1 [Compound 37, N-[4-(4-Nitrophenyl)-1,2,5-oxadiazol-3-yl]benzamide]	6.694	1.81 µM	12.2 µM	208 °C	–	46%
Cc1cccc(C(=O)Nc2nonc2-c2ccc([N+](=O)[O-])cc2)c1 [Compound 38, 3-Methyl-N-[4-(4-nitrophenyl)-1,2,5-oxadiazol-3-yl]benzamide]	–	0.99 µM	3.47 µM	–	–	68%
O=C(Nc1nonc1-c1cccc([N+](=O)[O-])c1)c1cccc(F)c1 [Compound 43, 3-Fluoro-N-[4-(3-nitrophenyl)-1,2,5-oxadiazol-3-yl]benzamide]	0.104	26.7 µM	2.77 µM	174 °C	–	79%
O=C(Nc1nonc1-c1ccc([N+](=O)[O-])cc1)c1cccc(C(F)(F)F)c1 [Compound 40, N-[4-(4-Nitrophenyl)-1,2,5-oxadiazol-3-yl]-3-(trifluoromethyl)benzamide]	0.473	1.98 µM	0.936 µM	147 °C	–	82%
CCOc1cc(-c2nonc2NC(=O)c2cccc(C)c2)ccc1OC [Compound 51, N-[4-(3-Ethoxy-4-methoxyphenyl)-1,2,5-oxadiazol-3-yl]-3-methylbenzamide]	1526	0.034 µM	51.9 µM	280 °C	–	66%
Cc1cccc(C(=O)Nc2nonc2-c2cccc([N+](=O)[O-])c2)c1 [Compound 42, 3-Methyl-N-[4-(3-nitrophenyl)-1,2,5-oxadiazol-3-yl]benzamide]	0.464	11.5 µM	5.32 µM	158 °C	–	87%
COc1ccc(C(=O)Nc2nonc2-c2ccc([N+](=O)[O-])cc2)cc1Cl [Compound 53, 3-Chloro-4-methoxy-N-[4-(4-nitrophenyl)-1,2,5-oxadiazol-3-yl]benzamide]	–	0.323 µM	3.35 µM	261 °C	–	–
